A value given as a limit tells only on which side of the number the result lay.

In the Kinase Knowledgebase extract (Sharma et al. 2016) one finds IC50 data, which are given here for 95 molecules.

In the experiment the target is ROCK2 (human) (UniProt O75116). In words: Inhibition of ROCK2 Kinase Activity.
Sequence of ROCK2 (human) (O75116 whole entry, looked up): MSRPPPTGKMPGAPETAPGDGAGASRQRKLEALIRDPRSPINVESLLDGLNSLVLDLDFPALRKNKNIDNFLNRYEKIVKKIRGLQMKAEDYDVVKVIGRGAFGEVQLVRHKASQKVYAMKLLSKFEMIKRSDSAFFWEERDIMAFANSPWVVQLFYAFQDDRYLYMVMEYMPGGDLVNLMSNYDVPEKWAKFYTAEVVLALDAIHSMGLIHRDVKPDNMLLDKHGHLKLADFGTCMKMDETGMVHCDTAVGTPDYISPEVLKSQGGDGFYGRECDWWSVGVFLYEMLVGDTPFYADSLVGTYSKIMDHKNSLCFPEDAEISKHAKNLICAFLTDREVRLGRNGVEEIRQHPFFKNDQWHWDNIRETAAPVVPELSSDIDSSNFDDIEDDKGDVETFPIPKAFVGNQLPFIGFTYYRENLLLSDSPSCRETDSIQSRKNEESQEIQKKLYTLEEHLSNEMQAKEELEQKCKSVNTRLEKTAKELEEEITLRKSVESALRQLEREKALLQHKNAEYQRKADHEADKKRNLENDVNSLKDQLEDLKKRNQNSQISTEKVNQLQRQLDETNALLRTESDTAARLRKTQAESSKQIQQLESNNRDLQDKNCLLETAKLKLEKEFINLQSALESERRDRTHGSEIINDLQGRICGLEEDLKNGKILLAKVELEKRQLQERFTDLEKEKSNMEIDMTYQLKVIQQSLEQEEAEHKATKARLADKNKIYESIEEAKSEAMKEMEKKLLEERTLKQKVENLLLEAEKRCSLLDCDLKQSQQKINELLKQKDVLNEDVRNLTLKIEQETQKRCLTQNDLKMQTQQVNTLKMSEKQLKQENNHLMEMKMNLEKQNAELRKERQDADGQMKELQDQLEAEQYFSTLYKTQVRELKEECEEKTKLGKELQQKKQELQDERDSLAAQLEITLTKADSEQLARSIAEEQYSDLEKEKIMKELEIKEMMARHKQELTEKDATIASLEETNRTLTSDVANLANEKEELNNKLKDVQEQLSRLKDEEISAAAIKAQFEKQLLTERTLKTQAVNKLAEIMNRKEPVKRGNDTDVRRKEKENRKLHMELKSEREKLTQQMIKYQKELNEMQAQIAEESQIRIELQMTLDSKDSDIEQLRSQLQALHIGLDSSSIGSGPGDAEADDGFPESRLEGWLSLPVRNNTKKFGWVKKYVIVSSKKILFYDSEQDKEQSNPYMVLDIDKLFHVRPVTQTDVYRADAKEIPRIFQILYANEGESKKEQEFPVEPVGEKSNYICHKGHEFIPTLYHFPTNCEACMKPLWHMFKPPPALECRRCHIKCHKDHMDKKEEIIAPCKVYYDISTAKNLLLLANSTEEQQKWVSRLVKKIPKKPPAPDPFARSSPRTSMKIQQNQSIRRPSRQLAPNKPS

For orientation: IC50 means the concentration needed to halve the response being measured. In the case of `O=CC(=O)NCc1nc(-c2c[nH]c3ncccc23)n[nH]1`, the IC50 was more than 5 µM.
For `COC1=C(O)C=CC(C=CC(=O)NCc2nc(-c3c[nH]c4ncccc34)n[nH]2)=CC1`, the IC50 is more than 5 µM.
In turn, `O=C(NCc1nc(-c2ccncc2)n[nH]1)c1ccc(Oc2cccc(O)c2)cc1` had an IC50 not above 5 µM.
With `O=C(NCc1nc(-c2ccncc2)n[nH]1)c1ccc(Br)cc1` the figure was more than 5 µM; with `O=C(NCc1nc(-c2c[nH]c3ncccc23)n[nH]1)c1ccccc1Cc1ccccc1`, more than 5 µM.
Molecule `O=C(NCc1nc(-c2ccncc2)n[nH]1)c1cc(F)c(F)c(O)c1F` displayed an IC50 of more than 5 µM.
With `CC(C)(C)OC(=O)N1Cc2ccccc2CC1C(=O)NCc1nc(-c2c[nH]c3ncccc23)n[nH]1` (stereo not given) the figure was more than 5 µM.
The molecule `Cc1csc(C(=O)NCc2nc(-c3ccncc3)n[nH]2)c1` had an IC50 not above 5 µM.
Regarding `CC(C)c1ccc(C(=O)NCc2nc(-c3ccncc3)n[nH]2)cc1`, the IC50 was more than 5 µM.
With `CCC(C(=O)NCc1nc(-c2c[nH]c3ncccc23)n[nH]1)c1ccccc1` (stereo not given) the figure was more than 5 µM.
Turning to `Cc1c(C(=O)NCc2nc(-c3ccncc3)n[nH]2)cccc1[N+](=O)[O-]`, the concentration for half-maximal inhibition (IC50) is more than 5 µM.
Regarding `O=C(NCc1nc(-c2ccncc2)n[nH]1)c1ccncc1-c1ccccc1`, the IC50 was more than 5 µM.
`CC(=O)c1cccc(C(=O)NCc2nc(-c3c[nH]c4ncccc34)n[nH]2)c1` came in with an IC50 of more than 5 µM.
Take `O=C(NCc1nc(-c2c[nH]c3ncccc23)n[nH]1)c1ccc2cccc(O)c2n1`: the IC50 was more than 5 µM.
As for `O=C(NCc1nc(-c2c[nH]c3ncccc23)n[nH]1)c1ccccc1-c1ccccc1`, the IC50 is more than 5 µM.
In turn, `COC(=O)c1ccc(C(=O)NCc2nc(-c3ccncc3)n[nH]2)cc1` had an IC50 not above 5 µM.
Consider `CC(C)(C)OC(=O)N1Cc2ccccc2CC1C(=O)NCc1nc(-c2ccncc2)n[nH]1` (stereo not given), for which the IC50 was more than 5 µM.
For the molecule `Cc1cc(C(=O)NCc2nc(-c3c[nH]c4ncccc34)n[nH]2)cc(Cl)n1`, the IC50 is more than 5 µM.
The figure for `CCCCOc1ccc(C(=O)NCc2nc(-c3c[nH]c4ncccc34)n[nH]2)cc1` is more than 5 µM.
`CC(C)(C)OC(=O)NC1CCN(C(=O)Cc2nc(-c3ccncc3)n[nH]2)C1` (stereo not given): the concentration for half-maximal inhibition (IC50) is more than 5 µM.
In turn, `Cc1cc(C(=O)NCc2nc(-c3ccncc3)n[nH]2)ccc1O` came in with an IC50 not above 5 µM.
On to `CC(=O)Oc1ccc(C(=O)NCc2nc(-c3c[nH]c4ncccc34)n[nH]2)cc1`, for which the IC50 was not above 5 µM.
In turn, `O=C(NCc1nc(-c2c[nH]c3ncccc23)n[nH]1)c1ccc2cc(O)ccc2c1` showed an IC50 of more than 5 µM.
The molecule `CCC(=O)C(=O)NCc1nc(-c2c[nH]c3ncccc23)n[nH]1` displayed an IC50 of more than 5 µM.
Take `O=C(NCc1nc(-c2c[nH]c3ncccc23)n[nH]1)c1cccc(Br)c1`: the IC50 was more than 5 µM.
On to `O=C(NCc1nc(-c2c[nH]c3ncccc23)n[nH]1)c1cc(O)ccc1[N+](=O)[O-]`, for which the IC50 was more than 5 µM.
In the case of `O=C(NCc1nc(-c2ccncc2)n[nH]1)c1cccc(O)c1`, the IC50 was more than 5 µM.
In turn, `O=C(Cc1ccccc1O)NCc1nc(-c2ccncc2)n[nH]1` registered an IC50 of more than 5 µM.
`O=C(NCc1nc(-c2c[nH]c3ncccc23)n[nH]1)c1ccccc1C(F)(F)F` displayed an IC50 of more than 5 µM.
With `Cc1ccc(C(=O)CCC(=O)NCc2nc(-c3ccncc3)n[nH]2)cc1` the figure was more than 5 µM; with `O=C(C=Cc1ccccc1Cl)NCc1nc(-c2ccncc2)n[nH]1`, more than 5 µM; with `O=C(NCc1nc(-c2ccncc2)n[nH]1)c1cc(Cl)c(O)c(Cl)c1`, more than 5 µM.
`CCOc1ccc2ccccc2c1C(=O)NCc1nc(-c2ccncc2)n[nH]1` yielded an IC50 of more than 5 µM.
In turn, `O=C(NCc1nc(-c2c[nH]c3ncccc23)n[nH]1)c1cc2ccccc2cc1O` had an IC50 of more than 5 µM.
In the case of `CC(C)(C)C(=O)Oc1ccc(C(=O)NCc2nc(-c3ccncc3)n[nH]2)c(OC(=O)C(C)(C)C)c1`, the IC50 is more than 5 µM.
Turning to `CC(C)(C)c1ccc(C(=O)NCc2nc(-c3c[nH]c4ncccc34)n[nH]2)cc1`, the IC50 was more than 5 µM.
For the molecule `O=C(NCc1c[nH]c(-c2ccncc2)n1)c1cccs1`, the IC50 is more than 5 µM.
For `O=C(NCc1nc(-c2ccncc2)n[nH]1)c1c(O)ccc2ccccc12`, the IC50 was more than 5 µM.
As to `O=C(NCc1nc(-c2ccncc2)n[nH]1)c1n[nH]c2ccccc12`, the IC50 is not above 5 µM.
`CCCCCCCC(=O)NCc1nc(-c2ccncc2)n[nH]1` showed an IC50 of more than 5 µM.
With `O=C(NCc1nc(-c2c[nH]c3ncccc23)n[nH]1)c1ccc(Br)cc1`, the IC50 is more than 5 µM.
As for `O=C(NCc1nc(-c2ccncc2)n[nH]1)c1ccc(C(F)(F)F)cc1[N+](=O)[O-]`, the IC50 was more than 5 µM.
With `O=C(NCc1nc(-c2ccncc2)n[nH]1)c1cccc(F)c1F`, the IC50 is more than 5 µM.
As for `CCOc1ccccc1C(=O)NCc1nc(-c2ccncc2)n[nH]1`, the IC50 was more than 5 µM.
Turning to `O=C(NCc1nc(-c2c[nH]c3ncccc23)n[nH]1)c1cc2cc(Cl)ccc2o1`, the IC50 was more than 5 µM.
The figure for `O=C(NCc1nc(-c2ccncc2)n[nH]1)c1ccc(Cl)c(Br)c1` is more than 5 µM; for `CCCc1ccc(C(=O)NCc2nc(-c3ccncc3)n[nH]2)cc1` it is more than 5 µM.
The molecule `CC1=NN(c2ccc(C(=O)NCc3nc(-c4ccncc4)n[nH]3)cc2)C(=O)C1` came in with an IC50 of more than 5 µM.
With `O=C(Cc1ccc(Br)cc1)NCc1nc(-c2ccncc2)n[nH]1` the figure was more than 5 µM; with `COc1ccc(Br)c(C(=O)NCc2nc(-c3ccncc3)n[nH]2)c1`, more than 5 µM; with `CCOc1ccccc1C(=O)NCc1nc(-c2c[nH]c3ncccc23)n[nH]1`, more than 5 µM.
`COc1cccc(C(=O)NCc2nc(-c3ccncc3)no2)c1` gave an IC50 of more than 5 µM.
As to `O=C(NCc1nc(-c2ccncc2)n[nH]1)c1cc2cc(Cl)ccc2o1`, the IC50 was more than 5 µM.
As to `O=C(NCc1nc(-c2c[nH]c3ncccc23)cs1)c1cccs1`, the IC50 is not above 5 µM.
The molecule `CCCCc1ccc(C(=O)NCc2nc(-c3ccncc3)n[nH]2)cc1` yielded an IC50 of more than 5 µM.
In turn, `O=C(CC1Cc2ccccc2C1)NCc1nc(-c2ccncc2)n[nH]1` came in with an IC50 of more than 5 µM.
In turn, `O=C(NCc1nc(-c2ccncc2)n[nH]1)c1cc(F)c(F)cc1Cl` registered an IC50 of more than 5 µM.
`O=C(NCc1nc(-c2ccncc2)n[nH]1)c1c(F)cccc1Cl`: the IC50 was more than 5 µM.
As for `COc1cccc(C(=O)NCc2nc(-c3ccncc3)n[nH]2)c1OC`, the IC50 is more than 5 µM.
With `O=C(NCc1nc(-c2c[nH]c3ncccc23)n[nH]1)C1CCCO1` (stereo not given) the figure was more than 5 µM; with `O=C(NCc1nc(-c2ccncc2)n[nH]1)c1cccc2cc[nH]c12`, not above 5 µM.
With `COc1cccc(C(=O)NCc2nc(-c3c[nH]c4ncccc34)cs2)c1`, the IC50 was not above 5 µM.
The figure for `O=C(NCc1nc(-c2ccncc2)n[nH]1)c1cccc(I)c1` is more than 5 µM; for `CCOC(=O)CC(=O)NCc1nc(-c2c[nH]c3ncccc23)n[nH]1` it is more than 5 µM; for `Cc1ccccc1OCC(=O)NCc1nc(-c2c[nH]c3ncccc23)n[nH]1` it is more than 5 µM.
With `Cc1ccccc1OCC(=O)NCc1nc(-c2ccncc2)n[nH]1` the figure was more than 5 µM; with `CC(C)c1cc(C(=O)NCc2nc(-c3c[nH]c4ncccc34)n[nH]2)c(O)c(C(C)C)c1`, more than 5 µM; with `CCN(CC)c1ccc(C(=O)NCc2nc(-c3ccncc3)n[nH]2)cc1`, more than 5 µM.
`O=C(NCc1nc(-c2c[nH]c3ncccc23)n[nH]1)c1ccc([N+](=O)[O-])cc1Cl`: the IC50 is more than 5 µM.
Take `CCCCOc1ccc(C(=O)NCc2nc(-c3ccncc3)n[nH]2)cc1`: the IC50 is more than 5 µM.
Molecule `Cc1ccc(C)c(C(=O)NCc2nc(-c3ccncc3)n[nH]2)c1` displayed an IC50 of more than 5 µM.
As for `CC(C)(C)OC(=O)N1CCCC1C(=O)NCc1nc(-c2c[nH]c3ncccc23)n[nH]1` (stereo not given), the IC50 was more than 5 µM.
The molecule `CC(C)(C)OC(=O)NC(Cc1ccccc1)C(=O)NCc1nc(-c2ccncc2)n[nH]1` (stereo not given) registered an IC50 of more than 5 µM.
For `Cc1cccc(C(=O)NCc2nc(-c3ccncc3)n[nH]2)c1C`, the IC50 was more than 5 µM.
Regarding `O=C(NCc1nc(-c2ccncc2)n[nH]1)c1ccc(Oc2ccccc2)cc1`, the IC50 was not above 5 µM.
Molecule `O=C(NCc1nc(-c2c[nH]c3ncccc23)n[nH]1)c1cc(Cl)ccc1O` gave an IC50 of more than 5 µM.
Consider `COc1ccccc1C=CC(=O)NCc1nc(-c2c[nH]c3ncccc23)n[nH]1`, for which the IC50 is more than 5 µM.
With `O=C(CCc1ccccc1Br)NCc1nc(-c2c[nH]c3ncccc23)n[nH]1` the figure was more than 5 µM.
For the molecule `Cc1cccc(C(=O)NCc2nc(-c3c[nH]c4ncccc34)n[nH]2)c1C`, the IC50 is more than 5 µM.
With `COc1ccc(C(=O)NCc2nc(-c3ccncc3)n[nH]2)cc1` the figure was not above 5 µM; with `COC(=O)c1ccc(C(=O)NCc2nc(-c3c[nH]c4ncccc34)n[nH]2)cc1`, more than 5 µM.
Turning to `CC(NC(=O)c1ccc(O)cc1O)c1nc(-c2ccncc2)n[nH]1` (stereo not given), the IC50 is not above 5 µM.
`O=C(NCc1nc(-c2ccncc2)co1)c1ccc(O)cc1O` registered an IC50 not above 5 µM.
In turn, `O=C(NCc1nc(-c2c[nH]c3ncccc23)n[nH]1)C1CCc2ccccc2C1` (stereo not given) displayed an IC50 of more than 5 µM.
`Cn1cnc(C(=O)NCc2nc(-c3c[nH]c4ncccc34)n[nH]2)c1` returned an IC50 of more than 5 µM.
With `O=C(NCc1nc(-c2ccncc2)n[nH]1)c1ccccc1OCc1ccccc1`, the IC50 was more than 5 µM.
The molecule `O=C(NCc1nc(-c2c[nH]c3ncccc23)n[nH]1)c1ccccc1[N+](=O)[O-]` registered an IC50 of more than 5 µM.
Molecule `Cc1cccc(C(=O)NCc2nc(-c3c[nH]c4ncccc34)n[nH]2)c1[N+](=O)[O-]` yielded an IC50 of more than 5 µM.
With `O=C(NCc1nc(-c2c[nH]c3ncccc23)n[nH]1)c1ccc2c(c1)OCO2` the figure was more than 5 µM; with `O=C(NCc1nc(-c2ccncc2)n[nH]1)c1cc(Cl)ccn1`, more than 5 µM.
For `O=C(NCc1nc(-c2c[nH]c3ncccc23)n[nH]1)c1cc(O)ccc1O`, the IC50 was more than 5 µM.
The molecule `O=S(=O)(NCc1nc(-c2ccncc2)n[nH]1)c1ccc(O)cc1` displayed an IC50 of more than 5 µM.
As to `Cc1ccc(C(=O)NCc2nc(-c3c[nH]c4ncccc34)n[nH]2)cc1F`, the IC50 was more than 5 µM.
As for `O=C(NCc1nc(-c2ccncc2)n[nH]1)c1ccc(F)cc1Cl`, the IC50 is more than 5 µM.
The figure for `Cc1cccc(C(=O)NCc2cc(-c3ccncc3)n[nH]2)c1O` is not above 5 µM.
